What was measured:
Assay type in all cases: binding
[1] = target: T1, kinases (KINOMEscan panel) (Homo sapiens, UniProt P21709); conditions: EPHA1; NEW KINOMEscan
T1 sequence (P21709 26-976): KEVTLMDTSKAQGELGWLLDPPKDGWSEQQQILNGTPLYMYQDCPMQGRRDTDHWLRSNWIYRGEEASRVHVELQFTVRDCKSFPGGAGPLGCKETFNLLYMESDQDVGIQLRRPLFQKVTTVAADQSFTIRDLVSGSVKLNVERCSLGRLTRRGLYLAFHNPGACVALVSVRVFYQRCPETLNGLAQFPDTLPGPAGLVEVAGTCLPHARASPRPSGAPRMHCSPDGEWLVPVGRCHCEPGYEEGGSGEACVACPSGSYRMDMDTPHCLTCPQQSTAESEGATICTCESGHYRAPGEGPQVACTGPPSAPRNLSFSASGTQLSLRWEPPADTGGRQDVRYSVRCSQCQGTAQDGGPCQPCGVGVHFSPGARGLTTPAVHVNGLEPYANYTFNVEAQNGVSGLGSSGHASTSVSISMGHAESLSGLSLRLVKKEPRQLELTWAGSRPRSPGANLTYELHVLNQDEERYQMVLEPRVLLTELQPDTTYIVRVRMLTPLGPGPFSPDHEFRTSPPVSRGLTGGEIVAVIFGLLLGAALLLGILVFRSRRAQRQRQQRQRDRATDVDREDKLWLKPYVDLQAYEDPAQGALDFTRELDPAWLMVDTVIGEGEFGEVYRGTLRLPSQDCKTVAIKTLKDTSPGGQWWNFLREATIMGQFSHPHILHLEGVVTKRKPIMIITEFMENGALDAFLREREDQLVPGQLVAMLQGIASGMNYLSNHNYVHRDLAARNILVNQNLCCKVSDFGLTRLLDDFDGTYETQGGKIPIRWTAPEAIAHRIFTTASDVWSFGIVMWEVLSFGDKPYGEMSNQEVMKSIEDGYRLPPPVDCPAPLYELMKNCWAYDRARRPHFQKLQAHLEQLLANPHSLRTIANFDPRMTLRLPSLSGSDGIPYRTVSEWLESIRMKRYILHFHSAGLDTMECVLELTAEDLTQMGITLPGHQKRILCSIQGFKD

[2] = target: T2, kinases (KINOMEscan panel) (Homo sapiens, UniProt Q13470); conditions: TNK1; NEW KINOMEscan
T2 sequence (Q13470 1-666): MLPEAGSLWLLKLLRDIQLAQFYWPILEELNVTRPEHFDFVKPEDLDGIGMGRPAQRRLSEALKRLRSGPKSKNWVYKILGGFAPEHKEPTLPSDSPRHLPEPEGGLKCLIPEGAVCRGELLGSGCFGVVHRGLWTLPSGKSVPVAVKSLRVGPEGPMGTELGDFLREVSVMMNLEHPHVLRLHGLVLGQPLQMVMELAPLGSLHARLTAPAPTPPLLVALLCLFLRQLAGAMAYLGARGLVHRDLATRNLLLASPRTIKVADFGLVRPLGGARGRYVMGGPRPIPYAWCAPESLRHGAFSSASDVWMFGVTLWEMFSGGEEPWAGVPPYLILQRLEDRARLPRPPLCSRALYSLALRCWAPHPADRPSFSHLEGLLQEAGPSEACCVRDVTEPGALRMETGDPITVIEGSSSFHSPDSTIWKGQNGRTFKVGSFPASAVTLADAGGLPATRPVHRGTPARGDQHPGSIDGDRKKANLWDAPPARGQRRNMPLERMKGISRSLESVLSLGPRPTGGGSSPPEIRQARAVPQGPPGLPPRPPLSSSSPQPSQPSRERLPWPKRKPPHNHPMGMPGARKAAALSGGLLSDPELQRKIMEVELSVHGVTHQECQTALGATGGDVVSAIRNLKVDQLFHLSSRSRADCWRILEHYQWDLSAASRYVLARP

[3] = target: T3, kinases (KINOMEscan panel) (Homo sapiens, UniProt Q99759); conditions: MAP3K3; NEW KINOMEscan
T3 sequence (Q99759 1-626): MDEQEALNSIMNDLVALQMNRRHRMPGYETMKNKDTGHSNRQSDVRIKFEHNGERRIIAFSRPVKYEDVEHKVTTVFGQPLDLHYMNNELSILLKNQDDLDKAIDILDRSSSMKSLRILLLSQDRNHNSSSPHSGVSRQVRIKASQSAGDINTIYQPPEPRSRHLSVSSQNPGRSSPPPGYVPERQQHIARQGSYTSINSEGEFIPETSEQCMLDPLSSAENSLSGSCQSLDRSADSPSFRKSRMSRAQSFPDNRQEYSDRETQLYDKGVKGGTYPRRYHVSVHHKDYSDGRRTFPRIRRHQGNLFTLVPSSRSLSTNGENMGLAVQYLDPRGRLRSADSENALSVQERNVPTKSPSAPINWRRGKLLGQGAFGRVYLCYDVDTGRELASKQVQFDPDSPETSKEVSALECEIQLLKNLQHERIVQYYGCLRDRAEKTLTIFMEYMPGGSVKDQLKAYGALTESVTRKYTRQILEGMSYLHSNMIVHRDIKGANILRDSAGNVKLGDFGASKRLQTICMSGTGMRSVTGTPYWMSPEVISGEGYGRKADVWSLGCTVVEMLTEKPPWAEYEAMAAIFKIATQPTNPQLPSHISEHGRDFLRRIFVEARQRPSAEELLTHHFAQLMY

[4] = target: kinases (KINOMEscan panel) (Homo sapiens, UniProt Q9H4A3); conditions: NEW KINOMEscan
[5] = target: kinases (KINOMEscan panel) (Homo sapiens, UniProt O60331); conditions: PIP5K1C; NEW KINOMEscan
Chain of kinases (KINOMEscan panel) (Homo sapiens, UniProt O60331) (O60331 whole entry): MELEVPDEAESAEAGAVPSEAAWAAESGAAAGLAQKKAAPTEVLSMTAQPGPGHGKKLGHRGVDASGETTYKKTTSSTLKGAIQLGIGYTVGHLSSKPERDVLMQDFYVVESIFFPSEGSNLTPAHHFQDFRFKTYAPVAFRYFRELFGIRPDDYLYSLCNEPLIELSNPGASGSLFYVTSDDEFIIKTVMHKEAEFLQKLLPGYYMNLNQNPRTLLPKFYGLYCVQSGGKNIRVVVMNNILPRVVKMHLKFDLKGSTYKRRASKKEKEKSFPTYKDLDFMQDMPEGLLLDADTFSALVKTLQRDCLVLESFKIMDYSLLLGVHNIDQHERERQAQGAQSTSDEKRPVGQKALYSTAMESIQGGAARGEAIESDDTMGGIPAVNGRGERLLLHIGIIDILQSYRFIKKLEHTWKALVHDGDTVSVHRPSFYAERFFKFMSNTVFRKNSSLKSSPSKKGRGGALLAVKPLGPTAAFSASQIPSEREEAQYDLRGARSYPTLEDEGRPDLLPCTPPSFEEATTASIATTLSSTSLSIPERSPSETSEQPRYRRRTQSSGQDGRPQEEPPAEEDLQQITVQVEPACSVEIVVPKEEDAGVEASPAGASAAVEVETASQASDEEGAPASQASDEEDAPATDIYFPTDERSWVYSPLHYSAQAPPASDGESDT

Chain of kinases (KINOMEscan panel) (Homo sapiens, UniProt Q9H4A3) (Q9H4A3 whole entry): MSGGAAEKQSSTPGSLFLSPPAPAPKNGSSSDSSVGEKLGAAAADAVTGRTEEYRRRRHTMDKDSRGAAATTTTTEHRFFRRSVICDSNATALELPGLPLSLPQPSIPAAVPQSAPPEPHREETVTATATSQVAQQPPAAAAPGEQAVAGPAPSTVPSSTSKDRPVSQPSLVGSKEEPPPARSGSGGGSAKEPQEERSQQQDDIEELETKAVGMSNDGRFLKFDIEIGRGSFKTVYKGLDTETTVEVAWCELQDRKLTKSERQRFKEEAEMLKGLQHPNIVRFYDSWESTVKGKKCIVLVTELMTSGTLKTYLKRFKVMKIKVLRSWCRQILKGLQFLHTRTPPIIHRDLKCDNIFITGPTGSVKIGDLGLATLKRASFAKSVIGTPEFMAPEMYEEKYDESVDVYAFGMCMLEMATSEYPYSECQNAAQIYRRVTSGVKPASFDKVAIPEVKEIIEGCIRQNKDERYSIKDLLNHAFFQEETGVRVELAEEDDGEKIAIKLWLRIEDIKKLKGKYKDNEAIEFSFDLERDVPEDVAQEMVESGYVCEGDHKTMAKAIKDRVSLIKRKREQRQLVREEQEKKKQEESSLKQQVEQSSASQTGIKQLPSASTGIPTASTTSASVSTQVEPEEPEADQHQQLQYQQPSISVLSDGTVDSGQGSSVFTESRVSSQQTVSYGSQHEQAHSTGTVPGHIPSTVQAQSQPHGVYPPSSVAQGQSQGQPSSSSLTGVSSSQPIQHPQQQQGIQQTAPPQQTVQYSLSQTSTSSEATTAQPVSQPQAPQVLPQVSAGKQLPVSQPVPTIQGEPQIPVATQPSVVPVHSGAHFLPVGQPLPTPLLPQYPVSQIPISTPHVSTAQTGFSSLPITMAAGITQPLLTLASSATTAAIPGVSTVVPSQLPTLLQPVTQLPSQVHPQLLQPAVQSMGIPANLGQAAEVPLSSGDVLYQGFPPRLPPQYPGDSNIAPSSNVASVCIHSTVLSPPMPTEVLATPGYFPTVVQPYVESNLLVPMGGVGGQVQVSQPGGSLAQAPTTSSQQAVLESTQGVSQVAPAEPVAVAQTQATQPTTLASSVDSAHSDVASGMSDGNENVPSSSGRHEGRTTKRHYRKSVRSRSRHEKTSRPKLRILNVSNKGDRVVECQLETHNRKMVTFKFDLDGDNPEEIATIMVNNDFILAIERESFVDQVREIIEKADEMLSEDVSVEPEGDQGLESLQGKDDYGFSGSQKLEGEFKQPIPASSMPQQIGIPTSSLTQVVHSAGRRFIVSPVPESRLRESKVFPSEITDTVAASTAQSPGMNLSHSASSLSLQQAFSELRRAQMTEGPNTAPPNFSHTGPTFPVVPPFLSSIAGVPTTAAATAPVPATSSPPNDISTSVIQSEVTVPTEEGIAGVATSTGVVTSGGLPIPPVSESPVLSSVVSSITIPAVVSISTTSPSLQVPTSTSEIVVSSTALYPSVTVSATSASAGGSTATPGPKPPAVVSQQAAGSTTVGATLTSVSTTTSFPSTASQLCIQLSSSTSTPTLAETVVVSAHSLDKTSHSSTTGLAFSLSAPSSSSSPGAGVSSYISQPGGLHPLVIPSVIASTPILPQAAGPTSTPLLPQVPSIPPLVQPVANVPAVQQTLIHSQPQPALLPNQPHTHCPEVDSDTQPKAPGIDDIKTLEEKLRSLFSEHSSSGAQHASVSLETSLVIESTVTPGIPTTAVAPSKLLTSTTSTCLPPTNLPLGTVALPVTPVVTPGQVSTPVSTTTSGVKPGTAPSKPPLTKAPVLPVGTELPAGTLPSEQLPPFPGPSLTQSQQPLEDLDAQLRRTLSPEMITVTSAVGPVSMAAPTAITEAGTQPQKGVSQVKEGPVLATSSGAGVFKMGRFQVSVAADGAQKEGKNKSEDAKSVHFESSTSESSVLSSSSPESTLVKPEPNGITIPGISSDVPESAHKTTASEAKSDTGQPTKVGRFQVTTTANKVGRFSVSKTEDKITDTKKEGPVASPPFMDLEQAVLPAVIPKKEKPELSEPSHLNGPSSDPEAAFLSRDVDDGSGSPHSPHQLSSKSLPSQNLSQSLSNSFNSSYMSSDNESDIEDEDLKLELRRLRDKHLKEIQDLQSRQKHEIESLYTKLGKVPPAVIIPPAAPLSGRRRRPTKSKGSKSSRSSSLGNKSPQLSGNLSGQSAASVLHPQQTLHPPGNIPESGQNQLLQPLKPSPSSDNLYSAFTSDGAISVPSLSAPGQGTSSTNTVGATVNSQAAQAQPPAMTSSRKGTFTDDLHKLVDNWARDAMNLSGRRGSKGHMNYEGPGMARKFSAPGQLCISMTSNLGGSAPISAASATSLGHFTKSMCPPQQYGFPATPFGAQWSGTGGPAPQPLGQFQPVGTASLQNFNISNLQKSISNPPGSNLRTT

Row | SMILES | KINOMEscan EPHA1 [1] | KINOMEscan TNK1 [2] | KINOMEscan MAP3K3 [3] | KINOMEscan WNK1 [4] | KINOMEscan PIP5K1C [5]
1 | Cc1cccc(-c2nc(Nc3ccc4nn(C)cc4c3)c3ccccc3n2)n1 [NK167] | 1 | 0 | 0 | 0 | 18
2 | Cc1cccc(-c2nc(N(C)c3ccc4ncsc4c3)c3ccccc3n2)n1 [NK-161] | 0 | 7 | 0 | 9 | 1
